The results in this text go back to article PMC9048505 (RSC Advances, 2020).

The structures appear in SMILES notation.

In one series the test system is HCT-116. The series can be described thus: In vitro anti-proliferative activity, MTT assay, HCT-116. The format is cell-based, human. The conditions noted are these: for IC50: Homo sapiens, HCT-116, MTT, 24 h treatment, mean ± S.D. of three separate experiments. The method, then:
(§1) The cells were obtained from ATCC (American Type Culture Collection) via the Holding company for biological products and vaccines (VACSERA) (Cairo, Egypt). […] After incubation period, the cell lines were treated with different concentration of the synthesized compounds and incubated for 24 h. After treatment by 24 h, 20 μL of MTT solution (5 mg mL^−1) was added and incubated for 4 h. Dimethyl sulfoxide (100 μL) was added into each well to dissolve the formed purple formazan. […] The relative cell viability in percentage was calculated as (A570 of treated samples/A570 of untreated sample) X 100.
On the technique in general: Formazan colour is commonly taken as a measure of viable cells.

In a further series the test system is HepG-2. The series can be described thus: In vitro anti-proliferative activity, MTT assay, HepG-2. The format is cell-based, human. The conditions noted are these: for IC50: Homo sapiens, HepG2, MTT, 24 h treatment, mean ± S.D. of three separate experiments. The method, then:
as §1

In the next series the test system is MCF-7. Put plainly: In vitro anti-proliferative activity, MTT assay, MCF-7. It is filed as cell-based, human. The conditions noted are these: for IC50: Homo sapiens, MCF7, MTT, 24 h treatment, mean ± S.D. of three separate experiments. The method, then:
as §1

The target of the next series is T1, purified bovine tubulin (Bos taurus, UniProt P81947+Q6B856).
T1 construct: purified bovine tubulin (10 μM); from tissue; host or cells: bovine
Put plainly: In vitro tubulin polymerization assay. It is filed as biochemical. The following applies: purified bovine tubulin 10 μM, 37 °C; read-out: IC50 Tubulin polymerization inhibition. The method, then:
The inhibition assay on microtubule polymerization was evaluated turbidimetrically using a fluorescent plate reader.[52]

T1 sequence (Q6B856 whole entry): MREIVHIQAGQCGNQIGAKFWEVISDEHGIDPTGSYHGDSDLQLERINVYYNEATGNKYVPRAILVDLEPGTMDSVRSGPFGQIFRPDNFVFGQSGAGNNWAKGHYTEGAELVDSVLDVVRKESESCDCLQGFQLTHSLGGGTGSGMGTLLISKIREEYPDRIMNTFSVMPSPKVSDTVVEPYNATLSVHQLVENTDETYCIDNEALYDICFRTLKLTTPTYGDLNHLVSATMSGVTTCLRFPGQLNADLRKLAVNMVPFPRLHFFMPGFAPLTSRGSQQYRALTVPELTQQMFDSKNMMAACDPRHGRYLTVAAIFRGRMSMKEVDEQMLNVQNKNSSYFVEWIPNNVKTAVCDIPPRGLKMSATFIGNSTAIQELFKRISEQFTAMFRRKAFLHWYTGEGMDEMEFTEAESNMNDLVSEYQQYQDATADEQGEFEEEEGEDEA
T1 sequence (P81947 whole entry): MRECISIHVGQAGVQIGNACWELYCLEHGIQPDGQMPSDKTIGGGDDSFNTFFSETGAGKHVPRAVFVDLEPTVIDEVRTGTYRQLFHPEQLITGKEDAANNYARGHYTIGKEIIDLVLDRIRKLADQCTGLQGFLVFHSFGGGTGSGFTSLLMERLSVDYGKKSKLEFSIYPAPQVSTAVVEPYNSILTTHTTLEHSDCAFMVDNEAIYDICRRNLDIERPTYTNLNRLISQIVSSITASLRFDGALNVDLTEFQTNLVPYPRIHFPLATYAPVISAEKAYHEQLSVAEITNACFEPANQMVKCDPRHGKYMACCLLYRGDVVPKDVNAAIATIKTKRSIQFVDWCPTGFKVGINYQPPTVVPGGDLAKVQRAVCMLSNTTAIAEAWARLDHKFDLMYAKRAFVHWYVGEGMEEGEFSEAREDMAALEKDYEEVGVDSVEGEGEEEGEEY

Turning to `C/C(=N\NC(N)=S)c1ccc(C)cc1` [Compound 3a, (E)-2-(1-(p-Tolyl)ethylidene)hydrazine-1-carbothioamide], the IC50 in the series on HCT-116, in the series on HepG-2 and in the series with MCF-7 was more than 50 µM in each case.
For the molecule `COc1ccc(/C(C)=N/NC(N)=S)cc1OC` [Compound 3b, (E)-2-(1-(3,4-Dimethoxyphenyl)ethylidene)hydrazine-1-carbothioamide], the melting point lay in the range of 205 to 207 °C. Moreover, 17.3 ± 1.4 µM corresponded to half-maximal inhibition with HCT-116 (IC50). For the same molecule, the IC50 in the series on HepG-2 was determined as 12.9 ± 0.4 µM. The molecule also displayed a half-inhibitory concentration (IC50) in the series with MCF-7 of 22.4 ± 1 µM. The concentration for half-maximal inhibition (IC50) on purified bovine tubulin was determined as 0.0445 ± 0.0023 µM.
The molecule `COc1ccc(/C=C2/N=C(N/N=C(\C)c3ccc(C)cc3)SC2=O)cc1` [Compound 4a, 4-((E)-4-Methoxybenzylidene)-2-(2-((E)-1-(p-tolyl)ethylidene)hydrazinyl) thiazol-5(4H)-one] returned a melting point of 248 to 250 °C. Besides, in the series on HCT-116, inhibition was half-maximal at 45.6 ± 3.5 µM (IC50). In the series with HepG-2, this molecule registered an IC50 of 34 ± 30.9 µM. The same molecule had an IC50 in the series with MCF-7 of more than 50 µM.
Regarding `C/C(=N\NC1=N/C(=C/c2ccc(Cl)cc2)C(=O)S1)c1ccc(C)cc1` [Compound 4b, 4-((E)-4-Chlorobenzylidene)-2-(2-((E)-1-(p-tolyl)ethylidene)hydrazinyl) thiazol-5(4H)-one], the melting point fell in the range of 266 to 268 °C. This molecule also displayed an IC50 with HCT-116 of 18.2 ± 1.3 µM. The molecule also showed a concentration for half-maximal inhibition (IC50) in the series on HepG-2 of 11.14 ± 0.1 µM. This molecule displayed an IC50 in the series on MCF-7 of 22.4 ± 1 µM.
The matching figures for `C/C(=N\NC1=N/C(=C/c2ccc(O)cc2)C(=O)S1)c1ccc(C)cc1` [Compound 4c, 4-((E)-4-Hydroxybenzylidene)-2-(2-((E)-1-(p-tolyl)ethylidene)hydrazinyl) thiazol-5(4H)-one]: 272 to 274 °C, 38.5 ± 2.5 µM, 35.2 ± 0.8 µM and 41.8 ± 1.2 µM.
The molecule `C/C(=N\NC1=N/C(=C/c2ccc(Cl)cc2Cl)C(=O)S1)c1ccc(C)cc1` [Compound 4d, 4-((E)-2,4-Dichlorobenzylidene)-2-(2-((E)-1-(p-tolyl)ethylidene)hydrazinyl) thiazol-5(4H)-one] displayed a melting point of more than 300 °C. The molecule also gave an IC50 in the series on HCT-116 of 10.6 ± 0.4 µM. Further, the midpoint of inhibition in the series with HepG-2, the IC50, lay at 6.6 ± 0.1 µM. The molecule also yielded an IC50 with MCF-7 of 14.8 ± 0.6 µM. The concentration for half-maximal inhibition (IC50) on purified bovine tubulin worked out at 0.0197 ± 0.0008 µM.
Consider `COc1ccc(/C=C2/N=C(N/N=C(\C)c3ccc(C)cc3)SC2=O)cc1OC` [Compound 4e, 4-((E)-3,4-Dimethoxybenzylidene)-2-(2-((E)-1-(p-tolyl)ethylidene)hydrazinyl) thiazol-5(4H)-one], for which the melting point fell in the range of 254 to 256 °C. The midpoint of inhibition with HCT-116, the IC50, lay at 13 ± 0.2 µM. It took 12.44 ± 0.1 µM to reach half-maximal inhibition with HepG-2 (IC50). This molecule also displayed an IC50 in the series with MCF-7 of 18.2 ± 0.5 µM. For the same molecule, at purified bovine tubulin, the IC50 is 0.0474 ± 0.0018 µM.
As to `C/C(=N\NC1=N/C(=C/c2ccc(O)cc2O)C(=O)S1)c1ccc(C)cc1` [Compound 4f, 4-((E)-2,4-Dihydroxybenzylidene)-2-(2-((E)-1-(p-tolyl)ethylidene)hydrazinyl) thiazol-5(4H)-one], the 50% inhibitory concentration (IC50) stood at 5.66 ± 0.1 µM in the series on HCT-116, 2.89 ± 0.1 µM with HepG-2, 4.46 ± 0.1 µM in the series with MCF-7 and 0.00933 ± 0.0003 µM at purified bovine tubulin. Further, the “times as active as colchicine against HCT-116” value in the series with HCT-116 (ratio of IC50 values) was 1.64 times. Moreover, the “times as active as colchicine against HepG-2” value in the series on HepG-2 (ratio of IC50 values) is 2.57 times. Moreover, in the series on MCF-7 (ratio of IC50 values), the “times as active as colchicine against MCF-7” value was determined as 2.34 times.
With `COc1ccc(/C=C2/N=C(N/N=C(\C)c3ccc(OC)c(OC)c3)SC2=O)cc1` [Compound 4g, 2-(2-((E)-1-(3,4-Dimethoxyphenyl)ethylidene)hydrazinyl)-4-((E)-4-methoxybenzylidene) thiazol-5(4H)-one], the melting point lay in the range of 240 to 242 °C. The molecule further gave an IC50 in the series with HCT-116 of 12.9 ± 0.6 µM. The same molecule gave a half-maximal inhibitory concentration (IC50) with HepG-2 of 8.68 ± 0.1 µM. The molecule further returned an IC50 in the series on MCF-7 of 17.4 ± 0.5 µM.
In turn, `COc1ccc(/C(C)=N/NC2=N/C(=C/c3ccc(O)cc3)C(=O)S2)cc1OC` [Compound 4h, 2-(2-((E)-1-(3,4-Dimethoxyphenyl)ethylidene)hydrazinyl)-4-((E)-4-hydroxybenzylidene)thiazol-5(4H)-one] registered a melting point of 290 to 292 °C. Besides, the 50% inhibitory concentration (IC50) with HCT-116 turned out to be 41.8 ± 1.6 µM. In the series with HepG-2, this molecule registered a half-maximal inhibitory concentration (IC50) of 37.5 ± 0.8 µM. Besides, inhibition in the series on MCF-7 was half-maximal at 48.8 ± 1.4 µM (IC50).
In turn, `COc1ccc(/C(C)=N/NC2=N/C(=C/c3ccc(Cl)cc3Cl)C(=O)S2)cc1OC` [Compound 4i, 4-((E)-2,4-Dichlorobenzylidene)-2-(2-((E)-1-(3,4-dimethoxyphenyl)ethylid-ene)hydrazineyl) thiazol-5(4H)-one] came in with a melting point of more than 300 °C. In the series with HCT-116, this molecule had an IC50 of 40.5 ± 1.1 µM. This molecule also came in with an IC50 with HepG-2 of 31.9 ± 0.8 µM. It took 40.1 ± 1.9 µM to reach half-maximal inhibition in the series on MCF-7 (IC50).
As to `COc1ccc(/C=C2/N=C(N/N=C(\C)c3ccc(OC)c(OC)c3)SC2=O)cc1OC` [Compound 4j, 4-((E)-3,4-Dimethoxybenzylidene)-2-(2-((E)-1-(3,4-dimethoxyphenyl)ethylid-ene)hydrazinyl)thiazol-5(4H)-one], the melting point is 232 to 236 °C. Also, in the series on HCT-116, the IC50 is 22.9 ± 0.7 µM. In the series with HepG-2, this molecule displayed a half-maximal inhibitory concentration (IC50) of 32.6 ± 0.9 µM. The IC50 in the series with MCF-7 stood at 43.3 ± 1.8 µM.
Consider `COc1ccc(/C(C)=N/NC2=N/C(=C/c3ccc(O)cc3O)C(=O)S2)cc1OC` [Compound 4k, 4-((E)-2,4-Dihydroxybenzylidene)-2-(2-((E)-1-(3,4-dimethoxyphenyl)ethylid-ene)hydrazinyl)thiazol-5(4H)-one], for which the melting point is more than 300 °C. The same molecule came in with a half-inhibitory concentration (IC50) in the series on HCT-116 of 11.7 ± 0.3 µM. The molecule further displayed an IC50 with HepG-2 of 12.2 ± 0.4 µM. Moreover, the concentration for half-maximal inhibition (IC50) in the series on MCF-7 was found to be 13.9 ± 0.5 µM. Further, the IC50 on purified bovine tubulin amounted to 0.05001 ± 0.0004 µM.
`COc1ccc(/C(C)=N/NC2=N/C(=C/c3cccs3)C(=O)S2)cc1OC` [Compound 5b, (E)-2-(2-((E)-1-(3,4-Dimethoxyphenyl)ethylidene)hydrazinyl)-4-(thiophen-2-ylmethylene)thiazol-5(4H)-one] had a melting point of 208 to 210 °C. In the series on HCT-116, this molecule had an IC50 of 18.4 ± 0.2 µM. The IC50 in the series with HepG-2 amounted to 17.5 ± 0.7 µM. The molecule also gave an IC50 with MCF-7 of 21.8 ± 1 µM.
With `C/C(=N\NC(N)=S)c1cccs1` [Compound 7a, (E)-2-(1-(Thiophen-2-yl)ethylidene)hydrazine-1-carbothioamide], the half-inhibitory concentration (IC50) in the series with HCT-116, in the series on HepG-2 and in the series with MCF-7 was more than 50 µM each time.
On to `C/C(=N\NC(N)=S)c1ccco1` [Compound 7b, (E)-2-(1-(Furan-2-yl)ethylidene)hydrazine-1-carbothioamide], for which the 50% inhibitory concentration (IC50) in the series with HCT-116, in the series with HepG-2 and with MCF-7 was more than 50 µM in each case.
Take `COc1ccc(/C=C2/N=C(N/N=C(\C)c3cccs3)SC2=O)cc1` [Compound 8a, 4-((E)-4-Methoxybenzylidene)-2-(2-((E)-1-(thiophen-2-yl)ethylidene)hydra-zinyl)thiazol-5(4H)-one]: the melting point was in the range of 243 to 245 °C. Moreover, in the series on HCT-116, it took 35.5 ± 2 µM to reach half-maximal inhibition (IC50). In the series with HepG-2, this molecule showed an IC50 of 26.6 ± 0.9 µM. Moreover, the midpoint of inhibition in the series on MCF-7, the IC50, lay at 32.1 ± 1.2 µM.
Regarding `C/C(=N\NC1=N/C(=C/c2ccc(Cl)cc2)C(=O)S1)c1cccs1` [Compound 8b, 4-((E)-4-Chlorobenzylidene)-2-(2-((E)-1-(thiophen-2-yl)ethylidene)hydra-zinyl)thiazol-5(4H)-one], the melting point was 252 to 254 °C. Moreover, half-maximal inhibition in the series on HCT-116 (IC50) was put at 18.7 ± 0.6 µM. Also, the IC50 in the series with HepG-2 worked out at 19.5 ± 0.7 µM. This molecule returned an IC50 in the series on MCF-7 of 18.2 ± 0.6 µM.
`C/C(=N\NC1=N/C(=C/c2ccc(O)cc2)C(=O)S1)c1cccs1` [Compound 8c, 4-((E)-4-Hydroxybenzylidene)-2-(2-((E)-1-(thiophen-2-yl)ethylidene)hydra-zinyl)thiazol-5(4H)-one] showed a melting point of 178 to 180 °C. In addition, the IC50 in the series with HCT-116 came out at 17.2 ± 0.9 µM. This molecule yielded an IC50 with HepG-2 of 12.2 ± 0.3 µM. 19 ± 0.5 µM corresponded to half-maximal inhibition in the series with MCF-7 (IC50).
`C/C(=N\NC1=N/C(=C/c2ccc(Cl)cc2Cl)C(=O)S1)c1cccs1` [Compound 8d, 4-((E)-2,4-Dichlorobenzylidene)-2-(2-((E)-1-(thiophen-2-yl)ethylidene) hydrazinyl)thiazol-5(4H)-one] registered a melting point of 274 to 276 °C. Besides, half-maximal inhibition with HCT-116 (IC50) was put at 48.6 ± 1.8 µM. The 50% inhibitory concentration (IC50) with HepG-2 turned out to be 45.3 ± 1.2 µM. The molecule also returned an IC50 with MCF-7 of more than 50 µM.
The matching figures for `COc1ccc(/C=C2/N=C(N/N=C(\C)c3cccs3)SC2=O)cc1OC` [Compound 8e, 4-((E)-3,4-Dimethoxybenzylidene)-2-(2-((E)-1-(thiophen-2-yl)ethylidene) hydrazinyl) thiazol-5(4H)-one]: 248 to 250 °C, 34.7 ± 1 µM, 27.8 ± 0.5 µM and 25.8 ± 0.6 µM.
Molecule `C/C(=N\NC1=N/C(=C/c2ccc(Cl)cc2Cl)C(=O)S1)c1ccco1` [Compound 8j, 4-((E)-2,4-Dichlorobenzylidene)-2-(2-((E)-1-(furan-2-yl)ethylidene) hydrazinyl) thiazol-5(4H)-one] gave a melting point of 264 to 266 °C. In addition, in the series on HCT-116, the IC50 was more than 50 µM. The same molecule returned a half-maximal inhibitory concentration (IC50) in the series with HepG-2 of more than 50 µM. The same molecule gave a half-inhibitory concentration (IC50) with MCF-7 of more than 50 µM.
On to `C/C(=N\NC1=N/C(=C/c2cccs2)C(=O)S1)c1ccco1` [Compound 9b, (E)-2-(2-((E)-1-(Furan-2-yl)ethylidene)hydrazinyl)-4-(thiophen-2-ylmethylene) thiazol-5(4H)-one], for which the melting point was 203 to 205 °C. This molecule also gave an IC50 in the series on HCT-116 of more than 50 µM. In addition, in the series on HepG-2, inhibition was half-maximal at 45.1 ± 0.7 µM (IC50). Further, the half-inhibitory concentration (IC50) in the series on MCF-7 was more than 50 µM.

As a reminder, the IC50 is the concentration that gives 50% inhibition. For orientation: melting point means the temperature of the solid-liquid transition.
